# Laboratory results reported in publication PMC10535741, “Styrylpyridinium Derivatives for Fluorescent Cell Imaging” (Pharmaceuticals, 2023).
# Entries after “also recorded” stand apart in the source; their conditions may differ.
# What was measured:
# [1] = tested on: BHK-21 cells; assay: Cell passaging assay, flow cytometry on day 6; assay type: cell-based, Syrian hamster; settings: BHK-21, passaged twice, six days of culture; 25 μM 6e or 1 μM Deep Red
# Experimental: In order to assess the stability of staining after prolonged cell culture, the stained BHK-21 cells (Day 1) were passaged twice (Days 2 and 4) and cultured for six days in total (Day 6, Figure 4). On day 6, the cells were collected and analysed by flow cytometry. […] It can be concluded that, in contrast to the Deep Red cell tracker, SP compound 6e effectively stains cells and can be used for up to 6 days of cell culture.
# For the cell passaging, on day 0, BHK-21 cells were plated on a 6-well plate with a seeding density of 1.5 × 10^5 cells per well. On day 1, the cells were stained with 25 μM compound 6e or 1 μM CellTracker™ Deep Red dye as described above. […] On day 6, cells were collected for flow cytometry analysis. The cells were kept at 4 °C and analysed as described above.
# [2] = tested on: BMDMs; assay: Confocal microscopy, localisation of the staining; assay type: cell-based, mouse; settings: 5 μM, confocal microscopy with WGA Alexa Fluor 488 and DAPI
# Excerpt: The stained BMDMs were studied using confocal microscopy to verify the membrane, cytoplasmic, or nuclear localisation of the staining (Figure 6). Wheat germ agglutinin (WGA) Alexa Fluor 488 (Invitrogen, W11261) was chosen for selective plasma membrane labelling and DAPI (Invitrogen, D1306) was selected for nucleus labelling. […] Furthermore, the SP compound 6e was compared with commercially available CM-DiI Dye (Invitrogen, ex/em: 553/570, Figure 6b).
# For confocal microscopy, BMDMs were stained with 4 μM CellTracker™ CM-DiI dye (Cat. No. C7001; Invitrogen) or 5 μM compound 6e. Briefly, the cells were washed and then a dye solution in PBS was added to them. […] Then, the cells were stained with WGA Alexa Fluor 488 (Cat. No. W11261; Invitrogen) following the manufacturer’s instructions. Briefly, the cells were incubated with 1 μg/mL WGA solution in PBS at 37 °C. […] The fluorescence was detected as follows: a DPSS (561 nm) laser was used for excitation of compound 6e and CM-Dil, an argon (488 nm) laser was used for WGA, and a diode (405 nm) laser was used for DAPI. For fluorescence detection, HyD was used for compound 6e and CM-Dil (578 nm–636 nm) and PMT detectors were used for WGA (493 nm–739 nm) and DAPI (417 nm–498 nm), pinhole at 95 µm. The images were analysed using Leica Application Suite X 3.1.5. software (Leica Microsystems, Germany).
structure (smiles),measurement,setting,value
"CCCCCCCCCCCCCCCC[n+]1ccc(C=CC=Cc2cc3c4c(c2)CCCN4CCC3)cc1.[Br-] [Compound 6e, 1-hexadecyl-4-(4-(2,3,6,7-tetrahydro-1H,5H-pyrido[3,2,1-ij]quinolin-9-yl)buta-1,3-dien-1-yl)pyridin-1-ium bromide]",positive fluorescent cells on day 6,[1],15.0 ± 0.7%
same,localisation of the staining in cells,[2],"strong fluorescent signal localised in the cell cytoplasm, whereas the cell nuclei were not stained; also recorded: localised in the cell cytoplasm and does not stain the cell nucleus; also recorded: localises within the cell cytoplasm and does not stain the cell nucleus"
